In PMC4628560 (Nature cell biology, 2015) one finds Kd data, which are given here for two compounds.

In experiment [1] the target is T1, 6-phosphogluconate dehydrogenase (6PGD) (Homo sapiens, UniProt P52209).
T1 sequence (P52209 1-483): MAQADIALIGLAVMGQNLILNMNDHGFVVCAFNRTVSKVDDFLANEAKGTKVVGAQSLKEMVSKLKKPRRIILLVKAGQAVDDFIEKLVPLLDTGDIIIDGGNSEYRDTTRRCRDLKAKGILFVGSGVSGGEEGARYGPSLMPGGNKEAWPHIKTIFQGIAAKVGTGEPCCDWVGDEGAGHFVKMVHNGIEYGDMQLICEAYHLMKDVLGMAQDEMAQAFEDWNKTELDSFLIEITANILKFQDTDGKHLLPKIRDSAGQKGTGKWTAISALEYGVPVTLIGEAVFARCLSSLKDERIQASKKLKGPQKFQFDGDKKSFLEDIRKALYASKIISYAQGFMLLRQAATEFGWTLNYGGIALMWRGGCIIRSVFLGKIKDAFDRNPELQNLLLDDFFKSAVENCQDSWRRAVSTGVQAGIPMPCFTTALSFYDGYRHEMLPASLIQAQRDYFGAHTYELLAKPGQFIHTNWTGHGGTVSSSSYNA
Nature of the experiment: tryptophan fluorescence-based binding assay with purified human 6PGD.

Experiment [2] has as its target T1, 6-phosphogluconate dehydrogenase (6PGD). The description is as above. This is another data set of the same source.

For orientation: Kd means the concentration at which binding is half-saturated. Low readings indicate higher affinity, high ones lower affinity.

Like-named read-outs stand apart in the source and are kept apart here.

Compound `COc1cc(O)c2c(c1)C(=O)c1cc(C)cc(O)c1C2=O` [Physcion, 1,8-Dihydroxy-3-methoxy-6-methyl-anthraquinone] came in with a Kd in experiment [1] of 26 µM. Consider `COc1cccc2c1C(=O)c1c(O)cccc1C2=O` [S3, 1-Hydroxy-8-methoxy-anthraquinon], for which, in experiment [2], the Kd was found to be 17.1 µM.
